{
  "source": "patent US20120135965A1",
  "about": "“AMORPHOUS FOSAMPRENAVIR CALCIUM” (RANBAXY LABORATORIES LIMITED, priority 2009, published 2012)",
  "key": {"[1]": {"assay": "Hygroscopicity according to European Pharmacopoeia 6.0", "type": "physicochemical", "details": "for Hygroscopicity, % increase in mass: 25 ± 1° C./80 ± 2% RH for 24 h, monocalcium salt"}, "[2]": {"assay": "Storage stability of the amorphous form followed by XRPD", "type": "physicochemical", "details": "40±1° C. at 75±2% RH, two months", "description": "The XRPD of the samples were determined by using Panalytical X'Pert Pro X-Ray Powder Diffractometer in the range 3 to 40 degree 2 theta with a step size of 0.02 and under tube voltage and current of 45 Kv and 40 mA respectively. Copper radiation of wavelength 1.54 angstrom and Xceletor detector were used.\nFosamprenavir calcium (5 g) was dissolved in methanol (125 ml) at 25° to 30° C. The solution was filtered and fed to a spray dryer (BUCHI, B-290) at feed pump RPM of 1% to 3%. The following parameters were controlled in the spray drying process: • Nozzle Diameter: 0.7 mm • Carrier gas: Nitrogen at 2.0 to 3.0 kg/cm^2 • Air inlet temperature: 80° to 85° C. • Outlet temperature: 35° to 55° C. • Type of atomizer: Two fluid nozzle • The solvent was evaporated at 80° to 85° C. by spray drying. The solid so obtained was collected from the spray dryer and further dried at 55° to 60° C. under vacuum (10 to 15 mmHg) for 10 to 12 hours to obtain the title compound having an XRPD pattern as depicted in FIG. 2."}, "[3]": {"assay": "Aqueous solubility test according to United States Pharmacopeia 32", "type": "physicochemical", "details": "for Solubility (mg/ml of solvent) / Parts of solvent required per g of solute / solubility: aqueous; for Solubility (mg/ml of solvent) / solubility: by qualitative observation; for solubility: thermodynamic from solid, read-out: Solubility (mg/ml of solvent)"}, "[4]": {"details": "Antimicrob. Agents Chemother., 2004, 48(3), 791-798; cited from earlier work"}},
  "note": "Read-outs that look alike come from different tables or passages of the source. Marks after values point to notes of the source that are not given here.",
  "data": [
    {"compound": "CC(C)CN(C[C@@H](OP(=O)([O-])[O-])[C@H](Cc1ccccc1)NC(=O)O[C@H]1CCOC1)S(=O)(=O)c1ccc(N)cc1.[Ca+2]", "note": "[(3S)-tetrahydrofuran-3-yl (1S ,2R)-3-[[(4-aminophenyl)sulfonyl](isobutyl)amino]-1-benzyl-2-(phosphonooxy)propylcarbamate monocalcium salt, reference compound]", "values": [
      {"measurement": "Hygroscopicity, % increase in mass", "setting": "[1]; listed as Crystalline form I", "value": 11.62, "unit": "%"}
    ]},
    {"compound": "CC(C)CN(C[C@@H](OP(=O)([O-])[O-])[C@H](Cc1ccccc1)NC(=O)O[C@H]1CCOC1)S(=O)(=O)c1ccc(N)cc1.[Ca+2]", "note": "[Amorphous fosamprenavir calcium, (3S)-tetrahydrofuran-3-yl (1S ,2R)-3-[[(4-aminophenyl)sulfonyl](isobutyl)amino]-1-benzyl-2-(phosphonooxy)propylcarbamate monocalcium salt]", "values": [
      {"measurement": "Hygroscopicity in words", "setting": "[1]", "value": "essentially non-hygroscopic"},
      {"measurement": "Hygroscopicity, % increase in mass", "setting": "[1]", "value": 17.5, "unit": "%"},
      {"measurement": "Change in XRPD pattern / conversion into crystalline form on storage", "setting": "[2]; listed as Example 2, monocalcium salt", "value": "no change in the XRPD pattern was observed"},
      {"measurement": "Change in XRPD pattern / conversion into crystalline form on storage", "setting": "[2]; monocalcium salt", "value": "not converted into any crystalline form"},
      {"measurement": "Solubility (mg/ml of solvent)", "setting": "[3]; pH 1.47, monocalcium salt", "value": 1.25, "unit": "mg/mL"},
      {"measurement": "Parts of solvent required per g of solute", "setting": "[3]; pH 1.47, monocalcium salt", "value": 800, "unit": "parts"},
      {"measurement": "Solubility (mg/ml of solvent)", "setting": "[3]; pH 3.27, monocalcium salt", "value": 10, "unit": "mg/mL"},
      {"measurement": "Parts of solvent required per g of solute", "setting": "[3]; pH 3.27, monocalcium salt", "value": 100, "unit": "parts"},
      {"measurement": "Parts of solvent required per g of solute", "setting": "[3]; pH 4.11, monocalcium salt", "value": 150, "unit": "parts"},
      {"measurement": "Solubility (mg/ml of solvent)", "setting": "[3]; pH 5.02, monocalcium salt", "value": 6.7, "unit": "mg/mL"},
      {"measurement": "Parts of solvent required per g of solute", "setting": "[3]; pH 5.02, monocalcium salt", "value": 150, "unit": "parts"},
      {"measurement": "solubility", "setting": "[3]; pH 4.11, aqueous buffer, pH 4.11", "value": 6.7, "unit": "mg/mL"},
      {"measurement": "solubility", "setting": "[3]; pH 6.27, aqueous buffer, pH 6.27", "value": 0.1, "unit": "mg/mL"},
      {"measurement": "Volume of aqueous solution required for dissolving about 1 g", "setting": "[3]; pH of about 3 to about 5.5", "value": "not more than 200 ml"},
      {"measurement": "Solubility compared with crystalline form I of fosamprenavir calcium", "setting": "[3]; relevant physiological pH range", "value": "superior"}
    ]},
    {"compound": "CC(C)CN(C[C@@H](OP(=O)([O-])[O-])[C@H](Cc1ccccc1)NC(=O)O[C@H]1CCOC1)S(=O)(=O)c1ccc(N)cc1.[Ca+2]", "note": "[Crystalline form I of fosamprenavir calcium] [(3S)-tetrahydrofuran-3-yl (1S ,2R)-3-[[(4-aminophenyl)sulfonyl](isobutyl)amino]-1-benzyl-2-(phosphonooxy)propylcarbamate monocalcium salt, reference compound]", "values": [
      {"measurement": "Solubility (mg/ml of solvent)", "setting": "[3]; pH 1.47", "value": 0.5, "unit": "mg/mL"},
      {"measurement": "Parts of solvent required per g of solute", "setting": "[3]; pH 1.47, monocalcium salt", "value": 2100, "unit": "parts"},
      {"measurement": "Solubility (mg/ml of solvent)", "setting": "[3]; pH 3.27, monocalcium salt", "value": 2.5, "unit": "mg/mL"},
      {"measurement": "Parts of solvent required per g of solute", "setting": "[3]; pH 3.27, monocalcium salt", "value": 400, "unit": "parts"},
      {"measurement": "Solubility (mg/ml of solvent)", "setting": "[3]; pH 4.11, monocalcium salt", "value": 4.0, "unit": "mg/mL"},
      {"measurement": "Parts of solvent required per g of solute", "setting": "[3]; pH 4.11, monocalcium salt", "value": 250, "unit": "parts"},
      {"measurement": "Solubility (mg/ml of solvent)", "setting": "[3]; pH 5.02, monocalcium salt", "value": 3.3, "unit": "mg/mL"},
      {"measurement": "Parts of solvent required per g of solute", "setting": "[3]; pH 5.02, monocalcium salt", "value": 300, "unit": "parts"},
      {"measurement": "Parts of solvent required per g of solute", "setting": "[3]; pH 6.27, monocalcium salt", "value": "> 10,000** parts"}
    ]},
    {"compound": "CC(C)CN(C[C@@H](OP(=O)([O-])[O-])[C@H](Cc1ccccc1)NC(=O)O[C@H]1CCOC1)S(=O)(=O)c1ccc(N)cc1.[Ca+2]", "note": "[calcium salt, (3S)-tetrahydrofuran-3-yl (1S ,2R)-3-[[(4-aminophenyl)sulfonyl](isobutyl)amino]-1-benzyl-2-(phosphonooxy)propylcarbamate monocalcium salt]", "values": [
      {"measurement": "Solubility over the relevant physiological pH range, compared among forms", "setting": "[4]", "value": "reduced solubility"}
    ]}
  ]
}
